Laboratory results reported in article PMC7582905, “Effect of Disulfide Cyclization of Ultrashort Cationic Lipopeptides on Antimicrobial Activity and Cytotoxicity” (International Journal of Molecular Sciences, 2020).
Where a SMILES comes first, the peptide text is derived from it. Bridges are numbered along the chain shown (N, C = ends). The star is where a group is joined. Palmitoyl = CCCCCCCCCCCCCCCC(=O)*

Key:
[1] = RP-HPLC determination of peptide hydrophobicity; format: physicochemical; conditions: 0.1% TFA; for reduced retention time t’R: RP-HPLC retention as measure of hydrophobicity, Waters X-Bridge Shield RP-18 3.0 × 100 mm, 3.5 μm, linear 20–65% acetonitrile in water over 30 min, 0.5 mL/min, 25.0 °C, UV 214 nm, 1 g/L, triplicate; for ∆tR: tR of cyclic analog − tR of parent lipopeptide, RP-HPLC, RP-18, 20–65% acetonitrile over 30 min
Method: The peptides were analyzed by RP-HPLC to determine relative hydrophobicity vs. retention time of each compound. In general, more hydrophobic lipopeptides will elute later than hydrophilic ones. Using this simple rule enables comparison of hydrophobicity by reduced retention times (t’R) and differences in retention time between the cyclic analog and its linear parent lipopeptide (Table 1). It can be deduced that the presence of cystine moiety has led to increased hydrophobicity. All cyclic lipopeptides are more hydrophobic than their linear counterparts but the effect of disulfide cyclization on retention is different in each pair. The highest increase in retention was noticed for the shortest lipopeptides L1 (C16-KKK-NH2) and C1 (C16-CKKKC-NH2). The differences between lipopeptides with one arginine residue indicate that its position is crucial for retention and therefore hydrophobicity. To learn how the arginine position affects hydrophobicity, the retention time of compound L2 (C16-KKKK-NH2) or C2 (C16-CKKKKC-NH2) was subtracted from that of the lipopeptides with one arginine residue, linear (L3, L4, L5, L6) or cyclic (C3, C4, C5, C6), respectively. In Figure 2 the effect of arginine position on retention time is related to unsubstituted lipopeptide.
To determine peptide hydrophobicity, a Waters Alliance e2695 system with a Waters 2998 PDA Detector (software-Empower 3, Waters, Milford, MA, USA) was used. All analyses were carried out on a Waters X-Bridge Shield RP-18 column (3.0 × 100 mm, 3.5 μm particle size, 130 Å pore size). The Shield Technology column with embedded polar groups was used to minimize interactions of unreacted silanol groups with basic lipopeptides. The peptides were dissolved in water (0.1% TFA, v/v) up to a concentration of 1 g/L. UV detection at 214 nm was used, and samples (10 μL) were eluted with a linear 20–65% acetonitrile gradient in deionized water over 30 min at 25.0 ± 0.1 °C. The mobile phase flow rate was 0.5 mL/min. Both eluents contained 0.1% (v/v) of TFA. Each peptide sample was analyzed in triplicate. Maximum standard deviation and coefficient of variation were 0.042 and 0.25%, respectively.

[2] = tested on: Candida albicans ATCC 10231; format: cell-based; conditions: ATCC 10231, 24 h
Method: (§1) The Staphylococcus aureus ATCC 25923, Staphylococcus epidermidis ATCC 14990, Escherichia coli ATCC 25922, Pseudomonas aeruginosa ATCC 9027, Candida albicans ATCC 10231, Candida glabrata ATCC 15126, Candida lipolytica PCM 2680-FY, and Candida tropicalis PCM 2709-FY strains were acquired from the Polish Collection of Microorganisms (PCM, Polish Academy of Sciences, Wrocław, Poland) and from the American Type Culture Collection (ATCC). All the strains were stored at −80 °C in Roti-Store cryo vials and before the tests were transferred into fresh Mueller–Hinton broth (MHB, Biocorp, Warsaw, Poland) for bacteria or RPMI-1640 (Sigma-Aldrich, Steinheim, Germany) for fungi and incubated for 24 h at 37 °C. Then, the cultures were seeded on Mueller–Hinton agar (BioMaxima, Lublin, Poland) or Sabouraud dextrose agar (SDA, BioMaxima, Lublin, Poland) plates, respectively, and incubated as just mentioned. These agar cultures were used for further microbiological assays. Cell densities for all assays were adjusted spectrophotometrically (Multiskan GO Microplate Spectrophotometer, Thermo Fisher Scientific, Vantaa, Finland) at 600 and 660 nm for bacteria and fungi, respectively.
(§2) The assay was performed to evaluate the effect of the lipopeptides in preventing biofilm formation. The preparation of inoculums was followed by a ca. 500-fold dilution of the 24 h cultures of microorganisms. Briefly, 50 μL of the compounds in the concentration range, diluted in appropriate medium, were prepared on 96-well polystyrene flat-bottom plates. Subsequently, the 50 μL of the bacterial/fungal inoculums were added to reach the same microbial density as that in the MBEC assay. After 24 h of incubation at 37 °C, the wells were rinsed three times with PBS and the fresh media with resazurin (4 g/L) were added. The MBICs were read after 1 h. All experiments were conducted in triplicate.

[3] = tested on: Candida glabrata ATCC 15126; format: cell-based; conditions: ATCC 15126, 24 h
Method: as §1, §2

[4] = tested on: Candida lipolytica PCM 2680-FY; format: cell-based; conditions: 24 h
Method: as §1, §2

[5] = tested on: Candida tropicalis PCM 2709-FY; format: cell-based; conditions: PCM 2709-FY, 24 h
Method: as §1, §2

[6] = tested on: Escherichia coli ATCC 25922; format: cell-based; conditions: ATCC 25922, 24 h
Method: as §1, §2

[7] = tested on: Pseudomonas aeruginosa ATCC 9027; format: cell-based; conditions: ATCC 9027, 24 h
Method: as §1, §2

[8] = tested on: Staphylococcus aureus ATCC 25923; format: cell-based; conditions: ATCC 25923, 24 h
Method: as §1, §2

[9] = tested on: Staphylococcus epidermidis ATCC 14990; format: cell-based; conditions: ATCC 14990, 24 h
Method: as §1, §2

[10] = tested on: human red blood cells (hRBCs); assay: Hemolysis assay; format: cell-based; conditions: peptide concentration causing 50% hemolysis; 4% (v/v) hRBCs in PBS, 1 h, 37 °C, absorbance 540 nm, triplicate
Method: The hemolysis assay was performed by using the method reported previously. Fresh human red blood cells (hRBCs) with anticoagulant (EDTA) were rinsed three times with a PBS by centrifugation at 800× g for 10 min and diluted with PBS. The lipopeptides were serially diluted on a 96-well microtiter polystyrene plate and hRBCs were added up to a final volume of 100 μL. The peptide concentration ranged between 0.5 and 256 μg/mL and the final hRBCs concentration was 4% (v/v). Controls for zero hemolysis (blank) and 100% hemolysis consisted of hRBCs suspended in PBS and 1% of Triton-X 100, respectively. The plate was incubated for 1 h at 37 °C and then centrifuged (800× g, 10 min, 4 °C). Subsequently, the supernatant was […] to new microtiter plates and the absorbance at 540 nm was measured. All experiments were conducted in triplicate. HC50 was calculated using an ic50.tk tool. Protocol of the study received approval from the local Bioethics Committee at the Medical University of Gdańsk (NKBBN/262/2019, approval date: 10 June 2019).

[11] = tested on: Staphylococcus aureus ATCC 25923; conditions: values marked *: performed by the group in the previous study; ref [29]; cited from earlier work
Description: Table 2 Antimicrobial activity of lipopeptides. | column: MIC (μg/mL) / S. aureus

Compound | reduced retention time t’R [1] [min] | ∆tR [1] | MBIC C. albicans [2] [µg/mL] | MBIC C. glabrata [3] [µg/mL] | MBIC C. lipolytica [4] [µg/mL] | MBIC C. tropicalis [5] [µg/mL] | MBIC E. coli [6] [µg/mL] | MBIC P. aeruginosa [7] [µg/mL] | MBIC S. aureus [8] [µg/mL] | MBIC S. epidermidis [9] [µg/mL] | HC50 [10] [µg/mL] | MIC S. aureus [11]
CCCCCCCCCCCCCCCC(=O)N[C@H]1CSSC[C@@H](C(N)=O)NC(=O)[C@H](CCCCN)NC(=O)[C@H](CCCCN)NC(=O)[C@H](CCCCN)NC1=O [C1, C16-CKKKC-NH2] (Palmitoyl-CKKKC-NH2; disulfide 1-5) | 18.05 | +1.91 min | 32 | 32 | 16 | 32 | 64 | 128 | 16 | 16 | 43.9 ± 3.5 | 8 * μg/mL
CCCCCCCCCCCCCCCC(=O)N[C@H]1CSSC[C@@H](C(N)=O)NC(=O)[C@H](CCCNC(=N)N)NC(=O)[C@H](CCCCN)NC(=O)[C@H](CCCCN)NC(=O)[C@H](CCCCN)NC1=O [C6, C16-CKKKRC-NH2] (Palmitoyl-CKKKRC-NH2; disulfide 1-6) | 16.32 | +1.43 min | 16 | 8 | 8 | 8 | 64 | 64 | 32 | 8 | 71.0 ± 6.4 | 16 * μg/mL
CCCCCCCCCCCCCCCC(=O)N[C@H]1CSSC[C@@H](C(N)=O)NC(=O)[C@H](CCCCN)NC(=O)[C@H](CCCCN)NC(=O)[C@H](CCCCN)NC(=O)[C@H](CCCNC(=N)N)NC1=O [C3, C16-CRKKKC-NH2] (Palmitoyl-CRKKKC-NH2; disulfide 1-6) | 16.51 | +1.30 min | 8 | 8 | 2 | 4 | 64 | 64 | 16 | 8 | 66.5 ± 14.8 | 8 * μg/mL
CCCCCCCCCCCCCCCC(=O)N[C@H]1CSSC[C@@H](C(N)=O)NC(=O)[C@H](CCCCN)NC(=O)[C@H](CCCNC(=N)N)NC(=O)[C@H](CCCCN)NC(=O)[C@H](CCCCN)NC1=O [C5, C16-CKKRKC-NH2] (Palmitoyl-CKKRKC-NH2; disulfide 1-6) | 16.16 | +1.15 min | 16 | 16 | 8 | 8 | 32 | 64 | 32 | 16 | 97.0 ± 15.4 | 8 * μg/mL

Now from value to molecule, other results behind:

reduced retention time t’R [1] [min] | ∆tR [1] | Compound | MBIC C. albicans [2] [µg/mL] | MBIC C. glabrata [3] [µg/mL] | MBIC C. lipolytica [4] [µg/mL] | MBIC C. tropicalis [5] [µg/mL] | MBIC E. coli [6] [µg/mL] | MBIC P. aeruginosa [7] [µg/mL] | MBIC S. aureus [8] [µg/mL] | MBIC S. epidermidis [9] [µg/mL] | HC50 [10] [µg/mL] | MIC S. aureus [11]
15.21 | – | CCCCCCCCCCCCCCCC(=O)N[C@@H](CCCNC(=N)N)C(=O)N[C@@H](CCCCN)C(=O)N[C@@H](CCCCN)C(=O)N[C@@H](CCCCN)C(N)=O [L3, C16-RKKK-NH2] (Palmitoyl-RKKK-NH2) | 64 | 64 | 16 | 16 | 32 | 64 | 32 | 16 | 79.1 ± 6.1 | 16 * μg/mL
14.89 | – | CCCCCCCCCCCCCCCC(=O)N[C@@H](CCCCN)C(=O)N[C@@H](CCCCN)C(=O)N[C@@H](CCCCN)C(=O)N[C@@H](CCCNC(=N)N)C(N)=O [L6, C16-KKKR-NH2] (Palmitoyl-KKKR-NH2) | 64 | 64 | 32 | 16 | 32 | 64 | 32 | 8 | 89.7 ± 2.4 | 16 * μg/mL
